Data published in patent publication US7001888B2, “Compositions and methods for treating cancer” (Threshold Pharmaceuticals, Inc., priority 2002, dated 2006).
Several values for one entry are separate records, joined by “and”; a condition that tells them apart may be missing. Identical values can stand only once.

System: HepG2 cells
Assay: Uptake of compounds by HepG2 cells
Type: cell-based, human
Conditions: for Uptake: 100 μM compound, 1 hour at 37° C., per mg protein, iodo conjugates by ICP-MS iodide content, 14C controls by scintillation counting; for Effect of D-glucose on uptake: D-glucose (10 mM) present; for Effect of L-glucose on uptake: L-glucose (10 mM) present; for Relative uptake among the compounds of the invention tested: comparison of Table 1 values
Experimental: This example describes assays conducted to determine to what extent certain iodo-containing conjugates of the invention are taken up or transported into cancer cells. As a positive control, the uptake of ^14C-labeled-2-deoxy-D-glucose, a compound transported into human cells via glucose transporters and phosphorylated by hexokinase, and thus retained in the cell, was measured. As a negative control, the uptake of ^14C-labeled-3-O-methyl-glucose, which is transported into the cell via the glucose transporters but is not phosphorylated and so is not retained, was measured.
The control assay was conducted as follows. HepG2 cells were plated at a density of 2×10^5 cells per well into a 24 well plate, and the plates were maintained in 37° C. incubator (5% CO2) for 2 days. Prior to the uptake assay, the HepG2 cells were rinsed twice with pre-warmed (37° C.) phosphate-buffered saline (PBS) containing 1 mM CaCl2, 1 mM MgCl2 and 0.3% BSA. The rinsed HepG2 cells were then incubated with 270 μl of buffer (PBS/Ca/Mg/BSA) in the absence or presence of D-glucose (10 mM), L-glucose (10 mM), cytochalasin B (10 μM) or phloretin (0.3 mM) for 10 min at 37° C. Then, 30 μl of ^14C-2DG (final concentration: 100 μM, 0.1 μCi) were added to each well, and the cells were incubated for 1 hour at 37° C. The plate was placed on ice, and the cells were washed rapidly three times with cold PBS buffer (4° C.) containing 1 mM CaCl2 and MgCl2. The cells were then lysed with 150 μl of 1% Triton X-100, and the lysate was transferred to a scintillation vial. The well was rinsed with 200 μl ddH2O, and the rinsate was transferred to the same vial. Radioactivity was quantified using a scintillation counter. The protein concentration of each sample was determined using a BCA kit (Sigma, St Louis, Mo.). The amount of uptake of ^14C-2DG is reported below in units of nmole/mg protein/60 min.
To measure uptake of the iodo-containing compounds of the invention, HepG2 cells were plated at a density of 2×10^5 cells per well into a 24 well plate, and the plates were maintained in 37° C. incubator (5% CO2) for 2 days. Prior to the uptake assay, the HepG2 cells were rinsed twice with pre-warmed (37° C.) phosphate-buffered saline (PBS) containing 1 mM CaCl2, 1 mM MgCl2 and 0.3% BSA. The HepG2 cells were then incubated with 270 μl of buffer (PBS/Ca/Mg/BSA) in the absence or presence of D-glucose (10 mM), L-glucose (10 mM), cytochalasin B (10 μM) or phloretin (0.3 mM) for 10 min at 37° C. Then, 30 μl of each of the conjugates (final concentration: 100 μM) were added to individual test wells, and the plates were incubated for 1 hour at 37° C. The plate was placed on ice, and then, the cells were washed rapidly three times with cold PBS buffer (4° C.) containing 1 mM CaCl2 and MgCl2. The cells were lysed by the sequential addition of 150 μl of 1% Triton X-100 and 100 μl of ddH2O into each well. Lysates from six replicate wells were pooled together for each sample (volume per sample: 1.5 ml). The protein concentration of each sample was determined using a BCA kit (Sigma, St Louis, Mo.). Samples were diluted by addition of 4 ml of ddH2O (final volume per sample: 5.5 ml), and the samples treated with the iodo-containing conjugates were analyzed for iodide content by inductively coupled plasma-mass spectrometry (West Coast Analytical Service, Santa Fe Spring, Calif.). The amount of uptake of iodide-containing glucose conjugate is reported as nmole/mg protein/60 min.

## 4-(iodophenyl)thiocarbamoyl glucosamine [TP022]
  Uptake: 0.90 nmole/mg/60 min and 0.97 nmole/mg/60 min

## 4-iodobenzyl glucosamine [TP012]
  Uptake: 2.8 +/− 0.14 (n = 4) nmole/mg/60 min
  Effect of D-glucose on uptake: not blocked
  Effect of L-glucose on uptake: not blocked
  Relative uptake among the compounds of the invention tested: most taken up by the cells

## 4-iodohippuroyl glucosamine [TP011]
  Uptake: 0.5 nmole/mg/60 min
  Effect of D-glucose on uptake: blocked
  Effect of L-glucose on uptake: not L-glucose

## CO[C@@H]([C@H](O)[C@H](O)CO)[C@@H](O)C=O [3-O-Methyl Glucose, 3-O-methyl-glucose, reference compound]
  Uptake: 0.2 nmole/mg/60 min

## O=CC[C@@H](O)[C@H](O)[C@H](O)CO [Compound 2-DG, 2-deoxy-D-glucose, reference compound]
  Uptake: 51.8 +/− 4.3 (n = 3) nmole/mg/60 min

## O=C(NCCN[C@H]1C(O)O[C@H](CO)[C@@H](O)[C@@H]1O)c1ccc(I)cc1 (stereo partly shown) [TP014]
  Uptake: 1.2 nmole/mg/60 min

## O=C(COCCOCCOCCOCCOCc1ccc(I)cc1)NC1C(O)O[C@H](CO)[C@@H](O)[C@@H]1O (stereo partly shown) [TP017]
  Uptake: 0.16 nmole/mg/60 min and 0.18 nmole/mg/60 min

## OC[C@H]1OC(O)[C@H](N(C/C=C\I)C/C=C\I)[C@@H](O)[C@@H]1O (stereo partly shown) [TP018, bis-Z-3-iodopropen-2-yl glucosamine]
  Uptake: 2.28 nmole/mg/60 min and 2.31 nmole/mg/60 min
  Relative uptake among the compounds of the invention tested: most taken up by the cells

## OC[C@H]1OC(O)[C@H](N(C/C=C/I)C/C=C/I)[C@@H](O)[C@@H]1O (stereo partly shown) [TP019, bis-E-3-iodopropen-2-yl glucosamine]
  Uptake: 1.39 nmole/mg/60 min and 1.00 nmole/mg/60 min

## O=S(=O)(N[C@H]1C(O)O[C@H](CO)[C@@H](O)[C@@H]1O)c1ccc(I)cc1 (stereo partly shown) [TP020, Pipsyl glucosamine]
  Uptake: 0.83 nmole/mg/60 min and 0.81 nmole/mg/60 min
